Measured values: PubChem BioAssay AID651630 (Sanford-Burnham Center for Chemical Genomics, 2012)
Calls of active or inactive are those of the source.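 How the source made its calls: active means lipid-stain IC50 at or below a set limit, with nuclear-stain toxicity IC50 at least five times higher; inactive means the rest.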

Legend:
DAPI = assay: TAG lipid buildup inhibition with viability readout – cell-based, panel, Nile Red and DAPI fluorescence, H9c2, dose response (AID 651630); conditions: H9c2 cells, DAPI nuclear fluorescence (cytotoxicity counter-readout), oleic acid;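 further: cells exposed to compound overnight before fixation and staining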
TAG = assay: as above; conditions: H9c2 cells, Nile Red TAG fluorescence, oleic acid

Compound | IC50 cytotoxicity (DAPI nuclear signal decrease) (DAPI; mean of runs) | IC50 cytotoxicity (DAPI nuclear signal decrease) (DAPI; run 1) | IC50 cytotoxicity (DAPI nuclear signal decrease) (DAPI; run 2) | IC50 (TAG; mean of runs) | IC50 (TAG; run 1) | IC50 (TAG; run 2)
CCOC(=O)[C@H]1[C@H]2COc3ccc(Cl)cc3[C@@H]2N2C(=O)c3cc(OC)ccc3NC(=O)[C@@]12C | > 25 µM (inactive) | > 25 µM | > 25 µM | > 25 µM (inactive) | > 25 µM | > 25 µM
COc1cc(NC(=O)c2csc(N)n2)cc(C(=O)Nc2cccc(C(F)(F)F)c2)c1 | > 25 µM (inactive) | > 25 µM | > 25 µM | 13.5 µM | 10.7 µM | 16.4 µM
CCCCCc1cc(=O)oc2c(C(CCN(CC)CC)c3cc(OC)c(OC)c(OC)c3)c(OC)cc(OC)c12 (stereo not drawn) | > 25 µM (inactive) | > 25 µM | > 25 µM | > 25 µM (inactive) | > 25 µM | > 25 µM
CCCCCC(=C/c1ccccc1)/C=N/Nc1ccc(S(=O)(=O)N2CCOCC2)cc1[N+](=O)[O-] |  | > 25 µM | > 25 µM | 2.9 µM | 1.96 µM | 3.83 µM
Cc1ccc(Cn2cc(/C=N/NC(=O)Cc3nnc(NC(=O)c4ccc(C)cc4)s3)c3ccccc32)cc1 | 16 µM (inactive) | 13.1 µM | 19 µM | > 25 µM (inactive) | > 25 µM | > 25 µM
O=C1COc2ccc(C(=O)CSc3nc4ccccc4c(=O)n3-c3ccc(Cl)c(Cl)c3)cc2N1 | 18.1 µM (inactive) | 18.4 µM | 17.8 µM | 13.8 µM | 14.1 µM | 13.4 µM
CCN1CCN(Cc2ccc(NC(=O)c3cc(NC(=O)c4cc5cccc(OC)c5o4)cc(OC)c3)cc2C(F)(F)F)CC1 | > 25 µM (inactive) | > 25 µM | > 25 µM | 13.9 µM | 12.7 µM | 15.1 µM
COc1ccc(CCn2c(-n3nc(C)cc3C)nc3c2c(=O)[nH]c(=O)n3C)cc1 | > 25 µM (inactive) | > 25 µM | > 25 µM | > 25 µM (inactive) | > 25 µM | > 25 µM
COC(=O)C1=C(C)N(Cc2ccccc2)C(=NCc2ccccc2)N[C@H]1c1ccccc1 |  | > 25 µM | 18.2 µM | > 25 µM (inactive) | > 25 µM | > 25 µM
C[C@@H]1CN([C@@H](C)CO)C(=O)c2cccc(NC(=O)C3CCCCC3)c2O[C@@H]1CN(C)Cc1ccc(Cl)c(Cl)c1 | > 25 µM (inactive) | > 25 µM | > 25 µM | 11.5 µM | 9.78 µM | 13.3 µM
FC(F)Oc1ccc(-c2csc(NNC3=NCCCCC3)n2)cc1 |  | > 25 µM | > 25 µM | 2.55 µM | 2.29 µM | 2.81 µM
CCOc1ccc(CCNC(=O)CN2CCN(Cc3ccccc3F)C2=O)cc1OCC |  | > 25 µM | > 25 µM | 3.01 µM | 2.44 µM | 3.57 µM
Cc1cc(NC(=O)CSc2nc3ccccc3c(=O)n2C2CCCC2)no1 | > 25 µM (inactive) | > 25 µM | > 25 µM | 9.22 µM | 7.24 µM | 11.2 µM
COc1ccc2sc(-c3ccc(S(C)(=O)=O)cc3)c(C#Cc3cncn3C)c2c1 | > 25 µM (inactive) | > 25 µM | > 25 µM | > 25 µM (inactive) | > 25 µM | > 25 µM
COCCn1cnc2c(c1=O)c1nc3ccccc3nc1n2/N=C/c1ccc(OC)c(OC)c1 |  | 23.4 µM | > 25 µM | 5.19 µM | 3.71 µM | 6.68 µM
NC1=NC[C@H](Cc2ccccc2)N1CCc1cc(C(F)(F)F)cc(C(F)(F)F)c1 | > 25 µM (inactive) | > 25 µM | > 25 µM | > 25 µM (inactive) | > 25 µM | > 25 µM
NC(=O)N/N=C/c1c(Sc2nnnn2-c2ccccc2)nc2ccccn2c1=O | 17.2 µM (inactive) | 15.7 µM | 18.7 µM | 10.7 µM | 15.3 µM | 6.11 µM

Compound | IC50 cytotoxicity (DAPI nuclear signal decrease) (DAPI; mean of runs) | IC50 cytotoxicity (DAPI nuclear signal decrease) (DAPI; run 1) | IC50 cytotoxicity (DAPI nuclear signal decrease) (DAPI; run 2) | IC50 (TAG; mean of runs) | IC50 (TAG; run 1) | IC50 (TAG; run 2)
CC(C)C[C@@H](CN1CCCC1CN1C(=S)NC[C@@H]1Cc1ccc(O)cc1)N1C[C@H](Cc2ccccc2)N(CC2CCCCC2)C1=S (stereo partly drawn) | 21.8 µM (inactive) | 21.7 µM | 21.8 µM | > 25 µM (inactive) | > 25 µM | > 25 µM
COC(=O)C1=C(c2ccc(OCc3ccccc3)cc2)C[C@@H]2CC[C@H]1N2C(=O)NCc1ccc(C(C)(C)C)cc1 | > 25 µM (inactive) | > 25 µM | > 25 µM | 16.7 µM (inactive) | 14.2 µM | 19.1 µM
COc1ccc(Oc2nc(-c3ccccn3)nc3ccccc23)cc1 | > 25 µM (inactive) | > 25 µM | > 25 µM | > 25 µM (inactive) | > 25 µM | > 25 µM
CC1(C)Cc2c(C#N)c(SCC(=O)c3ccccc3)nc(N3CCOCC3)c2CS1 | > 25 µM (inactive) | > 25 µM | > 25 µM | 19.3 µM (inactive) | 19.5 µM | 19.1 µM
O=C(Nc1ccc(-c2csc(Nc3ccc(Cl)cc3)n2)cc1)c1cc([N+](=O)[O-])cc(C(F)(F)F)c1 | > 25 µM (inactive) | > 25 µM | > 25 µM | 8.54 µM | 6.55 µM | 10.5 µM
COc1cc(-c2cnc3c(NC=O)cc(-c4cccnc4)cn23)cc(OC)c1OC | > 25 µM (inactive) | > 25 µM | > 25 µM | 15.8 µM (inactive) | 14.5 µM | 17 µM
O=C(Nc1ccccc1)c1ccc(NCC2CCCO2)c(S(=O)(=O)N2CCOCC2)c1 (stereo not drawn) | > 25 µM (inactive) | > 25 µM | > 25 µM | > 25 µM (inactive) | > 25 µM | > 25 µM
Cc1cccc(NC(=O)c2ccc([N+](=O)[O-])o2)c1C | 10.3 µM (inactive) | 9.7 µM | 10.9 µM |  | 19.8 µM | > 25 µM
C[C@H](CO)N1C[C@H](C)[C@@H](CN(C)Cc2ccc(-c3ccccc3)cc2)Oc2c(NC(=O)Cc3ccccc3)cccc2C1=O | > 25 µM (inactive) | > 25 µM | > 25 µM | 11.3 µM | 12.4 µM | 10.2 µM
C#CCN(C[C@@H]1[C@@H](OC(=O)NCc2ccco2)[C@@H](OC(=O)NCc2ccco2)CN(C(=O)OC(C)C)N1C(=O)OC(C)C)S(=O)(=O)c1ccc(C)cc1 |  | 16.5 µM | > 25 µM | 15.1 µM (inactive) | 16.2 µM | 14 µM
Cc1c(C(=O)N2CC3(CC(c4cccc(NC(=O)CC(c5ccccc5)c5ccccc5)c4)=NO3)C[C@@H]2C(N)=O)cc([N+](=O)[O-])cc1[N+](=O)[O-] (stereo partly drawn) | > 25 µM (inactive) | > 25 µM | > 25 µM | 12.2 µM | 11.8 µM | 12.6 µM
Cc1nn2c(N3CCN(C)CC3)c3c(nc2c1-c1ccccc1)CCCC3 | > 25 µM (inactive) | > 25 µM | > 25 µM | > 25 µM (inactive) | > 25 µM | > 25 µM
CCCCOc1ccccc1NC(=O)Cn1c(-c2nonc2N)nc2ccccc21 | > 25 µM (inactive) | > 25 µM | > 25 µM | > 25 µM (inactive) | > 25 µM | > 25 µM
COCCNc1nc(NCc2ccc(NC(C)=O)cc2)c2sc(-c3ccccc3)cc2n1 |  | 19.1 µM | > 25 µM | > 25 µM (inactive) | > 25 µM | > 25 µM
CN(Cc1ccccc1)C(=O)c1ccc(Nc2nc(C(N)Cc3ccccc3)cs2)nc1 (stereo not drawn) | > 25 µM (inactive) | > 25 µM | > 25 µM |  | 20.9 µM | > 25 µM
N#CC(C#N)=c1ccc2c(c1)N1C(c3ccccc3)=CC(c3ccccc3)C3CCCCC31N=2 (stereo not drawn) |  | > 25 µM | > 25 µM | 1.92 µM | 1.59 µM | 2.25 µM
